From patent US20060183901A1, “Crystalline form of an indazole-carboxamide compound” (THERAVANCE, INC., priority 2005, published 2006)

Columns and labels:
Type in all cases: physicochemical
[1] = Differential scanning calorimetry (DSC)
Experimental: Differential scanning calorimetry (DSC) was performed using a TA Instruments
Model Q-100 module. Data were collected and analyzed using TA Instruments Thermal Advantage for Q Series™ software. A sample of about 1-2 mg was accurately weighed into an aluminum pan with lid. The sample was evaluated using a linear heating ramp of 5° C./min from ambient temperature to at least 225° C. The DSC cell was purged with dry nitrogen during use. Representative DSC traces for samples of the crystalline dihydrochloride and dihydrobromide salts of the invention are shown in FIGS. 2 and 4, respectively.
(§1) The crystalline acid salts of the compound of formula I of Comparative Examples 1-4 were analyzed by PXRD, DSC, and TGA. The temperatures at which endothermic heat flow was observed by DSC, and weight loss was observed by TGA, along with confirmation of crystallinity by PXRD are summarized in Table II where the stoichiometry is indicated by the number of molar equivalents of acid used to prepare the acid salt.

[2] = Thermogravimetric analysis (TGA)
Experimental: Thermogravimetric analysis (TGA) was performed using a TA Instruments Model Q-500 module. Data were collected and analyzed using TA Instruments Thermal Advantage for Q Series™ software. […] The balance and furnace chambers were purged with nitrogen during use. Representative TGA traces for samples of crystalline dihydrochloride and dihydrobromide salts of the invention are also shown in FIGS. 2 and 4, respectively.
as §1

[3] = Dynamic moisture sorption assessment; conditions: humidity range of 40% to 60% relative humidity
Experimental: Dynamic moisture sorption (DMS) assessment was performed at 25° C. using a VTI atmospheric microbalance, SGA-100 system (VTI Corp., Hialeah, Fla. 33016). A sample size of approximately 5-10 mg was used and the humidity was set at the ambient value at the start of the analysis. A typical DMS analysis consisted of three scans: ambient to 2% relative humidity (RH), 2% RH to 90% RH, 90% RH to 5% RH at a scan rate of 5% RH/step. The mass was measured every two minutes and the RH was changed to the next value (+5% RH) when the mass of the sample was stable to within 0.01% for 5 consecutive points. Representative DMS traces for samples of crystalline dihydrochloride and dihydrobromide salts of the invention are shown in FIGS. 5 and 6, respectively.

[4] = Solid state stability assessment (HPLC, Karl Fischer)
Experimental: Samples of the dihydrochloride salt of the invention, about 100 mg each, were stored in multiple 4 mL glass vials with Teflon lined lids at 25° C. and 60% relative humidity (RH) and at 40° C. and 75% RH in open and closed containers. At specific intervals, the contents of a representative vial was removed and analyzed by the Karl Fisher method for water content and by the following HPLC method: • Column: Agilent Zorbax Bonus RP, 4.6×250 mm, 5 μm (Agilent Part No. 880668-901); • Mobile Phase A: 88% water, 2% acetonitrile, 10% 100 mM potassium phosphate; • Mobile Phase B: 20% water, 70% acetonitrile; 10% 100 mM potassium phosphate; • Flow rate: 1.5 mL/min; • Injection Volume: 10 μL • Detector: 214 nm; • Gradient—Time in minutes (% Mobile Phase B): 0.0 (2); 1.0 (2); 9.0 (22); • 19.0 (28); 33.0 (63); 36.3 (100); 37.0 (2); and 42.0 (2).
Samples were prepared as 0.25 to 0.75 mg/mL solutions in 5% acetonitrile, 85% water, 10% 100 mM potassium phosphate for injection onto the HPLC.
The initial water content was 1.2%, as determined by Karl Fischer titration using a Brinkman Metrohm (Westbury, N.Y.) Karl Fischer Model 831 coulometer. After 6 months the water content of the samples stored in open containers at 25° C./60% RH and at 40° C./75% RH was 2.9% and 5.3%, respectively, an increase of 1.7% and 4.1%, respectively.

[5] = Storage stability of the crystalline hydrate at 40° C. and 75% RH
Experimental: A sample of the dihydrochloride salt of the invention, about 50 mg, was stored in a 20 mL glass vial at 40° C. and 75% relative humidity. At specific intervals, aliquots of sample were dispensed and analyzed by PXRD and by DSC and TGA. The low temperature (i.e. below 150° C.) features in the DSC and TGA traces are characteristic of a hydrate. The hydrate form is observed to be stable when stored at 40° C. and 75% RH.

[6] = 6 months, open containers, 25° C./60% RH
[7] = 6 months, open containers, 40° C./75% RH
[8] = six months at 25° C. and 60% relative humidity

Molecule: CC(=O)O [acetate]
- DSC endotherm (temperature of endothermic heat flow) [1]: ˜100 °C
- TGA: temperature of weight loss [2]: ˜100 °C

Molecule: Br.Br.CC(=O)N1CCN(CCN2[C@@H]3CC[C@H]2CC(NC(=O)c2nn(C(C)C)c4ccccc24)C3)CC1 (stereo partly drawn) [dihydrobromide salt, 1-isopropyl-1H-indazole-3-carboxylic Acid {(1S,3R,5R)-8-[2-(4-acetylpiperazin-1-yl)ethyl]-8-azabicyclo[3.2.1]oct-3-yl}amide dihydrobromide]
- weight gain (hygroscopicity) [3]: less than 1%
- DSC: temperature below which no (significant) thermal events [1]: about 230 °C
- TGA: temperature below which no (significant) thermal event [2]: about 250 °C

Molecule: CC(=O)N1CCN(CCN2[C@@H]3CC[C@H]2C[C@@H](NC(=O)c2nn(C(C)C)c4ccccc24)C3)CC1.Cl.Cl [dihydrochloride salt, 1-isopropyl-1H-indazole-3-carboxylic Acid {(1S,3R,5R)-8-[2-(4-acetylpiperazin-1-yl)ethyl]-8-azabicyclo[3.2.1]oct-3-yl}amide dihydrochloride]
- weight gain (hygroscopicity) [3]: less than 1%
- change in potency ([4]; 6 months of storage, all conditions (25° C./60% RH, 40° C./75% RH, open and closed)): no detectable change in potency
- increase of water content [4, 6]: 1.7%
- water content (Karl Fischer) [4, 6]: 2.9%
- increase of water content [4, 7]: 4.1%
- water content (Karl Fischer) [4, 7]: 5.3%
- initial potency compared with the freebase (HPLC area percentage) ([4]; initial): 82.4%
- water content (Karl Fischer) ([4]; initial): 1.2%
- chemical degradation by HPLC [4, 8]: no chemical degradation
- gain in moisture content [4, 8]: < 2%
- DSC: temperature below which no (significant) thermal events [1]: about 200 °C
- simultaneous melting and decomposition temperature (DSC and TGA) [1]: 180-200 °C
- TGA: temperature below which no (significant) thermal event [2]: about 180 °C

Molecule: CC(=O)N1CCN(CCN2[C@@H]3CC[C@H]2CC(NC(=O)c2nn(C(C)C)c4ccccc24)C3)CC1.O=C(O)/C=C/C(=O)O (stereo partly drawn) [fumarate, fumaric Acid Salt of 1-isopropyl-1H-indazole-3-carboxylic acid {(1S,3R,5R)-8-[2-(4-acetylpiperazin-1-yl)ethyl]-8-azabicyclo[3.2.1]oct-3-yl}amide]
- DSC endotherm (temperature of endothermic heat flow) [1]: <150 °C
- TGA: temperature of weight loss [2]: loss ˜100 °C
- TGA: weight loss [2]: 5-6% wt.

Molecule: CC(=O)N1CCN(CCN2[C@@H]3CC[C@H]2CC(NC(=O)c2nn(C(C)C)c4ccccc24)C3)CC1.Cl.Cl.O (stereo partly drawn) [hydrate, Crystalline hydrate of 1-isopropyl-1H-indazole-3-carboxylic Acid {(1S,3R,5R)-8-[2-(4-acetylpiperazin-1-yl)ethyl]-8-azabicyclo[3.2.1]oct-3-yl}amide dihydrochloride]
- change in PXRD peak positions ([5]; 8 weeks vs 12 weeks at 40° C./75% RH): no significant change in PXRD peak positions
- stability of hydrate form on storage ([5]; 40° C. and 75% RH): stable

Molecule: O=[N+]([O-])O [nitrate]
- DSC endotherm (temperature of endothermic heat flow) [1]: <100 °C
- TGA: temperature of weight loss [2]: loss ˜150 °C
- TGA: weight loss [2]: 5-6% wt.

Molecule: CC(=O)N1CCN(CCN2[C@@H]3CC[C@H]2C[C@@H](NC(=O)c2nn(C(C)C)c4ccccc24)C3)CC1.O=P(O)(O)O [phosphate (1), Phosphoric Acid Salt of 1-isopropyl-1H-indazole-3-carboxylic Acid {(1S,3R,5R)-8-[2-(4-acetylpiperazin-1-yl)ethyl]-8-azabicyclo[3.2.1]oct-3-yl}amide]
- TGA: temperature of weight loss [2]: loss <100 °C
- TGA: weight loss [2]: 3-5% wt.

Molecule: CC(=O)N1CCN(CCN2[C@@H]3CC[C@H]2CC(NC(=O)c2nn(C(C)C)c4ccccc24)C3)CC1.Cc1ccc(S(=O)(=O)O)cc1 (stereo partly drawn) [tosylate, p-toluene Sulfonic Acid Salt of 1-isopropyl-1H-indazole-3-carboxylic acid {(1S,3R,5R)-8-[2-(4-acetylpiperazin-1-yl)ethyl]-8-azabicyclo[3.2.1]oct-3-yl}amide]
- DSC endotherm (temperature of endothermic heat flow) [1]: >200 °C

Molecule: benzoate
- DSC endotherm (temperature of endothermic heat flow) [1]: <150 °C
- TGA: temperature of weight loss [2]: ˜100 °C
